Experimental data: patent publication US20230346820A1, “METHODS AND COMPOSITIONS FOR THE TREATMENT OF SARS-COV-2” (priority 2020, published 2023)
Structures can show the parent of a compound that is named as a salt. Where two headings read alike, the source gives them in different places. Residues, ends and D or L forms follow the SMILES beside them. *: point of attachment. Cbz = O=C(OCc1ccccc1)*; CHN2 = [N-]=[N+]=C*

Legend:
[1] = tested on: HeLa-ACE2 cells; assay: cells; assay type: cell-based, human
[2] = tested on: SARS-CoV-2
[3] = in vitro; conditions: human
[4] = tested on: SARS-CoV-2; assay: microbe, parasite or virus in culture
[5] = tested on: SARS-CoV-2; conditions: read-out: Calu-3 CoV-2 EC50; Table 4; aggregated data, Geomean, n = 3; 48 h
[6] = Homo sapiens, HeLa-ACE2, read-out: HeLa-ACE-2 EC50 [μM] (Geomeans, n ≥ 2)
[7] = CC50 [μM] (Geomeans, n ≥ 2 except where indicated: *n = 1)
[8] = Severe acute respiratory syndrome coronavirus 2, HeLa-ACE2, 24 h, read-out: CoV-2 EC50 [μM] (Geomeans, n ≥ 2)
[9] = Severe acute respiratory syndrome coronavirus 2, HeLa-ACE2, read-out: SARS-CoV-2 EC50

| Compound | EC50 [1, 6] [µM] | HeLa-ACE2 CC50/CoV-2 EC50 [2] | CC50 [3, 7] [µM] | EC50 [4, 8] [µM] | further results |
| --- | --- | --- | --- | --- | --- |
| CCNCc1cc(Nc2ccnc3cc(Cl)ccc23)ccc1O | > 9.59 | >16.69 | > 20.4 | 1.22 |  |
| CN1C[C@@H]2c3ccccc3Oc3ccc(Cl)cc3[C@H]2C1 (racemic) [Asenapine maleate] |  |  | > 35.6 |  |  |
| Nc1ncnc2c1nc(Cl)n2[C@@H]1O[C@H](CO)[C@@H](O)[C@H]1O [8-Chloroadenosine] |  | >12.80 | > 11.9 | 0.927 |  |
| CC(C)(/C=N/OCC(=O)O)Cc1c(SC(C)(C)C)c2cc(OCc3ccc4ccccc4n3)ccc2n1Cc1ccc(Cl)cc1 [A 81834] | > 9.59 | >3.02 | > 22.6 | > 7.47 |  |
| C[C@@H]1CCCN1CCc1cc2cc(-c3ccc(C#N)cc3)ccc2o1 [ABT-239] | > 7.49 | 11.18 | > 37.2 | > 3.33 |  |
| CC1=C(c2ccc(O)cc2)[C@H](c2ccc(OCCN3CCCCC3)cc2)Oc2cc(O)ccc21 [ACOLBIFENE] | > 9.59 | 2.8 | 13.4 | 4.79 |  |
| COc1cc(C(C)=O)ccc1OCCCN1CCC(C(O)(c2ccc(F)cc2)c2ccc(F)cc2)CC1 [AHR-5333] | > 7.1 | 5.44 | > 24.7 | > 4.53 |  |
| COc1ccc(C[C@H]2NC[C@H](O)[C@H]2OC(C)=O)cc1 [ANISOMYCIN] |  |  |  |  | EC50 ([2]; read-out: HeLa-ACE2 CoV-2 EC50, Table 4, aggregated data, Geomean, n = 3): 0.066 µM; EC50 [5]: 127 nM |
| Cc1cccc(/C=N/Nc2cc(N3CCOCC3)n3nc(-c4ccncc4)cc3n2)c1 [APY0201] |  | >2853.95 | > 39.4 | 0.014 |  |
| NC1(C(=O)N[C@@H](CCO)c2ccc(Cl)cc2)CCN(c2nc[nH]c3nccc2-3)CC1 [AZD-5363] |  |  |  |  | EC50 ([1]; read-out: HeLa-ACE-2 EC50 [μM] (Geomeans, n ≥ 2)): > 3.39 µM; EC50 ([2]; read-out: CoV-2 EC50 [μM] (Geomeans, n ≥ 2), Table 1, HeLa-ACE2, 24 h): > 4.63 µM |
| CN1CCN(C2=Cc3cc(Cl)ccc3/C(=C\C#N)c3ccccc32)CC1 [Alkene Stereoisomer analog of Rilapine] | > 9.59 | >13.32 | > 39.8 | 2.99 |  |
| CCN(CC)Cc1cc(Nc2ccnc3cc(Cl)ccc23)ccc1O [Amodioaquine] |  | >33.48 | > 39.8 | 1.19 |  |
| CCOC(=O)c1c(CSc2ccccc2)n(C)c2cc(Br)c(O)c(CN(C)C)c12 [Arbidol] | > 9.34 | 4.88 | > 29.1 | > 5.97 |  |
| CCCN1CCN(c2ccc(C(=O)NC3(C(=O)NCC#N)CCCCC3)cc2)CC1 [Balicatib] | > 9.59 | >7.79 | > 39.8 | 5.11 |  |
| CC(C)(C)NC(=O)N[C@H](C(=O)N1C[C@H]2[C@@H]([C@H]1C(=O)NC(CC1CCC1)C(=O)C(N)=O)C2(C)C)C(C)(C)C (stereo partly drawn) [Boceprevir] | > 7.08 | 4.27 | > 39.8 | > 9.34 |  |
| CN1[C@@H]2CC[C@H]1C[C@@H](N1Cc3ccc4ccccc4c3C1=O)C2 [CR-3124] |  | >6.67 | > 39.8 |  |  |
| COc1ccc2cc1Oc1ccc(cc1)C[C@H]1c3c(cc4c(c3Oc3cc5c(cc3OC)CCN(C)[C@@H]5C2)OCO4)CCN1C [Cepharanthine] |  | >25.76 | > 25.4 |  |  |
| Oc1ccc(CCN2CCC(Nc3nc4ccccc4n3Cc3ccc(F)cc3)CC2)cc1 [DESMETHYLASTEMIZOLE] | > 9.59 | 6.81 | 16.2 | 2.38 |  |
| CCCCCCOC(=O)NC(=N)c1ccc(NCc2nc3cc(C(=O)N(CCC(=O)OCC)c4ccccn4)ccc3n2C)cc1 [Dabigatranetexilate mesilate] |  | >6.50 | > 26.5 |  |  |

| Compound | EC50 [1, 6] [µM] | HeLa-ACE2 CC50/CoV-2 EC50 [2] | CC50 [3, 7] [µM] | EC50 [4, 8] [µM] | further results |
| --- | --- | --- | --- | --- | --- |
| O=c1c2ccccc2[se]n1-c1ccccc1 [Ebselen] | 6.02 | 3.13 | > 26.6 | > 8.5 |  |
| CN(C)CC1=C[CH]([Fe][CH]2C=CC=C2)C=C1CNc1ccnc2cc(Cl)ccc12 (stereo not drawn) [Ferroquine] |  | 10.29 | 13.4 |  |  |
| c1cn2cc(-c3ccc4c(c3)nc3n4CCN4CCCCC4C3)ccc2n1 (stereo not drawn) [Integrity ID 725781] | > 9.59 | 4.41 | > 39.8 | > 9.04 |  |
| COC(CNCC(C)C)COc1c(C)csc1C(=O)CCc1ccccc1 (stereo not drawn) [LG-6-101] |  | 10.3 | > 35.6 | 3.46 |  |
| COCC12CN(S(=O)(=O)c3ccc4cc(Cl)ccc4c3)CC(=O)N1CC1(CCN(c3ccncc3)CC1)O2 (stereo not drawn) [M-55532] | > 6.45 | 6.81 | 18.9 | 2.77 |  |
| O=C(CCCN1CCN(c2ccc(F)cc2)CC1)NC1c2ccccc2CSc2ccccc21 (stereo not drawn) [MONATEPIL] |  | >5.01 | > 39 | > 7.79 |  |
| C=CC(=O)Nc1cc2c(Nc3ccc(F)c(Cl)c3)ncnc2cc1C#CC(C)(C)N1CCN(C)CC1 [MP-412] | 1.25 | 4.18 | 3.18 | 0.761 |  |
| c1ccc2c(c1)Sc1ccccc1N2CC1CN2CCC1CC2 (stereo not drawn) [Mequitazine] | > 9.59 | 6.83 | 17.3 | 2.53 |  |
| CCCCN1CC[C@H](c2ccc(N(C)C)cc2)[C@@H](COc2ccc(C(F)(F)F)cc2)C1 [NNC 090026] |  | >5.59 | > 15.4 | 2.75 | CC50 ([3]; Uninfected HeLa-ACE2 CC50 (μM)): > 15.4 µM; EC50 ([4]; Severe acute respiratory syndrome coronavirus 2, HeLa-ACE2, read-out: SARS CoV-2 EC50 (μM)): 2.75 µM |
| Cc1ccc(C(=O)Nc2ccc(CN3CCN(C)CC3)c(C(F)(F)F)c2)cc1C#Cc1cnc2cccnn12 [Ponatinib] | 1.25 |  |  | 1.61 |  |
| N#Cc1ccc2c(c1)[C@H]1CN(CCCCNC(=O)c3ccc(-c4ccccc4)cc3)C[C@@H]1CO2 [S-33084] |  | >6.34 | > 24.8 | 3.91 |  |
| CNC(=O)c1cc(Oc2ccc(NC(=O)Nc3ccc(Cl)c(C(F)(F)F)c3)cc2)ccn1 [Sorafenib] |  | >1.52 | > 8.65 | > 5.67 |  |
| COc1cc(C[C@H]2c3cc(OC)c(OC)cc3CCN2C)c(Oc2cc3c(cc2OC)-c2c(OC)c(OC)cc4c2[C@H](C3)N(C)CC4)cc1OC [Thalicarpine] | > 9.6 | >45.67 | > 26.6 |  |  |
| CC(C)CC(NC(=O)OCc1ccccc1)C(=O)NC(C(=O)NCC(=O)C=[N+]=[N-])C(C)C (stereo not drawn) [Z LVG CHN2] (Cbz-Leu-Val-Gly-CHN2; configuration not given here) |  | >554.29 | > 39.8 | 0.072 |  |
| Cc1c(-c2ccc(O)cc2)n(Cc2ccc(OCCN3CCCCCC3)cc2)c2ccc(O)cc12 [bazedoxifene] |  |  |  |  | EC50 [4, 9]: 3.47 µM |
| OC(CNCC(O)C1CCc2cc(F)ccc2O1)C1CCc2cc(F)ccc2O1 (stereo not drawn) [nebivolol hydrochloride] |  | >3.75 | > 11.1 | 2.96 |  |
| COc1ccc(C[C@H](N)C(=O)N[C@H]2[C@@H](O)[C@H](n3cnc4c(N(C)C)ncnc43)O[C@@H]2CO)cc1 [puromycin] |  |  |  |  | EC50 ([1]; Homo sapiens, HeLa-ACE2, read-out: EC50 (total cell numbers per well, toxicity in context of infection)): 0.547 ± 0.027 µM; CC50 ([3]; HeLa-ACE2 CC50): 2.45 ± 0.23 µM |
| O=C(c1ccc(OCCN2CCCCC2)cc1)c1c(-c2ccc(O)cc2)sc2cc(O)ccc12 [raloxifene] |  |  |  |  | EC50 [4, 9]: 4.13 µM |
